Results taken from patent US5001127A, “4-substituted pyrazolo[3,4-d]pyrimidine derivatives” (Ortho Pharmaceutical Corporation, priority 1989, dated 1991).
Where two headings read alike, the source gives them in different places.

Test system: Adult mongrel dogs
Test: Cardiotonic activity in anesthetized dogs (MAP, HR, dP/dtmax, contractile force), iv infusion
Assay type: in vivo
Conditions: for change in vivo at 1.875 mg/kg / ED (50% increase): Canis lupus familiaris; for ED (50% increase): dose producing 50% increase above baseline in myocardial contractile force, graphical estimation (n<3) or linear regression (n≥3), read-out: contractile force (CF) ED50
Procedure: Adult mongrel dogs were anesthetized with sodium pentobarbital (45 mg/kg, i.p.) and artificially respired. Mean arterial pressure (MAP) was recorded from a cannulated femoral artery and drugs were infused into a cannulated femoral vein. The arterial pressure pulse was used to trigger a cardiotachometer for determination of heart rate (HR). Left ventricular pressure was measured with a Millar catheter and dP/dtmax was derived. A right thoracotomy was performed and myocardial contractile force (CF) was measured with a Walton Brodie strain gauge sutured to the right ventricle. The ventricular muscle was stretched to produce a baseline tension of 100 g. A standard dose of dopamine (10-15 ug/kg/min for 3 min) was administered to determine myocardial responsiveness to inotropic stimulation. Test compounds were solubilized in a small volume of DMF diluted to a final concentration of 10% in physiological saline. Alternatively, where possible, a soluble hydrochloride salt was prepared by addition of 0.1N HCl diluted in physiological saline. Vehicles were tested in appropriate volumes and found to exert less than a 5% effect on contractile force. For iv studies, compounds were administered by infusion pump (one drug per animal) at rates of 0.58-2.2 mL/min in three to four stepwise increasing doses. Each dose was infused over 5 min immediately after the effect of the previous dose peaked. MAP, HR, dP/dtmax and CF responses were continuously monitored on a Beckman or Gould recorder and expressed as a percent change from pre-drug control values vs. the cumulative dose of drug administered. For these studies, n represents the number of test animals used.
Quantitation of the inotropic potency was obtained by calculation of the contractile force (CF) ED50. This was defined as the dose of compound that produced a 50% increase above baseline in myocardial contractile force. The value was obtained from three to four point dose-response curves using either graphical estimation (n<3) or linear regression analysis (n≥3). Numbers in parentheses are number of animals screened.

[1] = cumulative dose 1.875 mg/kg, femoral artery, read-out: MAP (mean arterial pressure), % Δ from control
[2] = cumulative dose 1.875 mg/kg, read-out: HR (heart rate), % Δ from control
[3] = cumulative dose 1.875 mg/kg, read-out: dP/dt (left ventricular dP/dtmax), % Δ from control
[4] = cumulative dose 1.875 mg/kg, right ventricle strain gauge, read-out: CF (myocardial contractile force), % Δ from control

CC(=O)OC(CNc1ncnc2[nH]ncc12)CN1CCN(C(c2ccc(F)cc2)c2ccc(F)cc2)CC1 (stereo not drawn) [Example 8, 4-[3-[4-Bis(4-fluorophenyl)methyl]-1-piperazinyl]-2-acetoxypropylamino-1H-pyrazolo[3,4-d]pyrimidine Hemihydrate]
change in vivo at 1.875 mg/kg [1]: 6% | change in vivo at 1.875 mg/kg [2]: -1% | change in vivo at 1.875 mg/kg [3]: 61% | change in vivo at 1.875 mg/kg [4]: 135%

OC(CSc1ncnc2[nH]ncc12)CN1CCN(C(c2ccc(F)cc2)c2ccc(F)cc2)CC1 (stereo not drawn) [Example 1]
change in vivo at 1.875 mg/kg [1]: -3% | change in vivo at 1.875 mg/kg [2]: -10% | change in vivo at 1.875 mg/kg [3]: 124% | change in vivo at 1.875 mg/kg [4]: 205% | ED (50% increase): 0.225 mg/kg

OC(CSc1ncnc2[nH]ncc12)CN1CCN(C(c2ccccc2)c2ccccc2)CC1 (stereo not drawn) [Example 2, 4-[2-Hydroxy-1-[(diphenylmethyl)piperazin-4-yl)-3-propanylthio]-1H-pyrazolo[3,4-d]pyrimidine Hemihydrate]
change in vivo at 1.875 mg/kg [1]: -12% | change in vivo at 1.875 mg/kg [2]: -11% | change in vivo at 1.875 mg/kg [3]: 48% | change in vivo at 1.875 mg/kg [4]: 97%

CCN(CC(O)CN1CCN(C(c2ccc(F)cc2)c2ccc(F)cc2)CC1)c1ncnc2[nH]ncc12 (stereo not drawn) [Example 10, 4-[3-[4-Bis(4-fluorophenyl)methyl]-1-piperazinyl]-2-hydroxypropyl-N-ethylamino]-1H-pyrazolo[3,4-d]pyrimidine.1/4 Hydrate]
change in vivo at 1.875 mg/kg [1]: 3% | change in vivo at 1.875 mg/kg [2]: 13% | change in vivo at 1.875 mg/kg [3]: 44% | change in vivo at 1.875 mg/kg [4]: 63%

OC(CSc1ncnc2[nH]ncc12)CN1CCN(C(c2ccc(Cl)cc2)c2ccc(Cl)cc2)CC1 (stereo not drawn) [Example 4, 4-[1-[1-[Bis(4-chlorophenyl)methyl]piperazin-4-yl]-2-hydroxy-3-pronanylthio]-1H-pyrazolo[3,4-d]pyrimidine]
change in vivo at 1.875 mg/kg [1]: 8% | change in vivo at 1.875 mg/kg [2]: 1% | change in vivo at 1.875 mg/kg [3]: 90% | change in vivo at 1.875 mg/kg [4]: 163% | ED (50% increase): 0.45 mg/kg

OC(COc1ncnc2c1cnn2C1CCCCO1)CN1CCN(C(c2ccc(F)cc2)c2ccc(F)cc2)CC1 (stereo not drawn) [Example 3, 4-[3-[4-[Bis(4-fluorophenyl)methyl]-piperazin-1-yl]-2-hydroxy-propoxy]-1-(tetrahydropyran-2-yl)pyrazolo[3,4-d]pyrimidine]
change in vivo at 1.875 mg/kg [1]: -13% | change in vivo at 1.875 mg/kg [2]: 1% | change in vivo at 1.875 mg/kg [3]: 1% | change in vivo at 1.875 mg/kg [4]: 14%

OC(CNc1ncnc2[nH]ncc12)CN1CCN(C(c2ccc(F)cc2)c2ccc(F)cc2)CC1 (stereo not drawn) [Example 7, 4-[3-[4-Bis(4-fluorophenyl)methyl]-1-piperazinyl]-2-hydroxypropylamino-1H-pyrazolo[3,4-d]pyrimidine sesquihydrate]
change in vivo at 1.875 mg/kg [1]: 6% | change in vivo at 1.875 mg/kg [2]: -20% | change in vivo at 1.875 mg/kg [3]: 33% | change in vivo at 1.875 mg/kg [4]: 111%

CON(CC(O)CN1CCN(C(c2ccc(F)cc2)c2ccc(F)cc2)CC1)c1ncnc2[nH]ncc12 (stereo not drawn) [Example 11, 4-[3-[4-Bis(4-fluorophenyl)methyl-1-piperazinyl-2-hydroxypropyl-N-methoxyamino]-(1H)-pyrazolo[3,4-d]pyrimidine.5/4 Hydrate]
change in vivo at 1.875 mg/kg [1]: -2% | change in vivo at 1.875 mg/kg [2]: 5% | change in vivo at 1.875 mg/kg [3]: 25% | change in vivo at 1.875 mg/kg [4]: 37%

CN(CC(O)CN1CCN(C(c2ccc(F)cc2)c2ccc(F)cc2)CC1)c1ncnc2[nH]ncc12 (stereo not drawn) [Example 9, 4-[3-[4-Bis(4-fluorophenyl)methyl-1-piperazinyl]-2-hydroxypropylamino-N-methylamino-1H-pyrrazolo[3,4-d]pyrimidine Hemihydrate]
change in vivo at 1.875 mg/kg [1]: 4% | change in vivo at 1.875 mg/kg [2]: 3% | change in vivo at 1.875 mg/kg [3]: 52% | change in vivo at 1.875 mg/kg [4]: 54%

OC(CSc1ncnc2c1cnn2CC1CO1)CN1CCN(C(c2ccccc2)c2ccccc2)CC1 (stereo not drawn) [Example 5, 1-(1,2-Epoxy-3-propanyl)-4-[1-(diphenylmethylpiperazin-4-yl]-2-hydroxy-3-propanylthio]-1H-pyrazolo[3,4-d]pyrimidine]
HR (heart rate), % Δ from control (cumulative dose 1.875 mg/kg): -14 % Δ from control | dP/dt (left ventricular dP/dtmax), % Δ from control (cumulative dose 1.875 mg/kg): 28 % Δ from control | MAP (mean arterial pressure), % Δ from control (cumulative dose 1.875 mg/kg, femoral artery): -8 % Δ from control | CF (myocardial contractile force), % Δ from control (cumulative dose 1.875 mg/kg, right ventricle strain gauge): 38 % Δ from control
